Target: T1, human PDE4B1 (Homo sapiens, UniProt Q07343)
T1 construct: host or cells: Sf9 cells
Assay: TR-FRET assay using the LANCE Ultra cAMP kit to determine the activity of hPDE4B1
Type: biochemical
Details: for inhibition at 1 µM: test concentration 1 μM; for inhibition at 1 µM / inhibition at 10 µM: read-out: Inhibition in % (inhibition of PDE4B)
From the text: TR-FRET Assay Using the LANCE® Ultra cAMP Kit to Determine the Activity of hPDE4B1
The effects of the compounds on the activity of the human PDE4B1 was quantified by measuring the production of 5′AMP from cAMP using a human recombinant enzyme expressed in Sf9 cells and the LANCE® Ultra cAMP kit, a TR-FRET detection method from PerkinElmer. The human PDE4B1 enzyme was purchased from SignalChem Lifesciences (Catalog# P92-31BG, Lot# H296-2).
The test compound, reference compound or water (control) was mixed with the enzyme (0.96 U) in a reaction buffer containing 50 mM Tris-HCl, 50 mM MgCl2 and 5 mM DTT (pH 8.5). Thereafter, the reaction was initiated by addition of 500 nM cAMP (substrate) and the mixture was incubated for 30 minutes at room temperature. For control basal measurements, the enzyme was omitted from the reaction mixture. After 30 minutes, the reaction was stopped and diluted by a factor of 100 with the reaction buffer supplemented with 500 μM IBMX. The fluorescence donor (europium chelate-labeled cAMP) and the fluorescence acceptor (anti-cAMP antibody labeled with the ULight™ dye) were then added together with 500 μM IBMX to a 10 μl aliquot. After 60 minutes, the fluorescence transfer corresponding to the amount of residual cAMP was measured at λex=337 nm, λem=620 nm and λem=665 nm using a microplate reader (PHERAstar, BMG). The enzyme activity was determined by dividing the signal measured at 665 nm by that measured at 620 nm (ratio) multiplied by 10000. The results were expressed as percent inhibition of the control enzyme activity. IC50 values (IC50=concentration causing a half-maximal inhibition of control specific activity) were derived from dose response measurements with ten different concentrations (n=3; N=1-3).

[1] = test concentration 10 μM (marked in cell)

T1 sequence (Q07343 whole entry): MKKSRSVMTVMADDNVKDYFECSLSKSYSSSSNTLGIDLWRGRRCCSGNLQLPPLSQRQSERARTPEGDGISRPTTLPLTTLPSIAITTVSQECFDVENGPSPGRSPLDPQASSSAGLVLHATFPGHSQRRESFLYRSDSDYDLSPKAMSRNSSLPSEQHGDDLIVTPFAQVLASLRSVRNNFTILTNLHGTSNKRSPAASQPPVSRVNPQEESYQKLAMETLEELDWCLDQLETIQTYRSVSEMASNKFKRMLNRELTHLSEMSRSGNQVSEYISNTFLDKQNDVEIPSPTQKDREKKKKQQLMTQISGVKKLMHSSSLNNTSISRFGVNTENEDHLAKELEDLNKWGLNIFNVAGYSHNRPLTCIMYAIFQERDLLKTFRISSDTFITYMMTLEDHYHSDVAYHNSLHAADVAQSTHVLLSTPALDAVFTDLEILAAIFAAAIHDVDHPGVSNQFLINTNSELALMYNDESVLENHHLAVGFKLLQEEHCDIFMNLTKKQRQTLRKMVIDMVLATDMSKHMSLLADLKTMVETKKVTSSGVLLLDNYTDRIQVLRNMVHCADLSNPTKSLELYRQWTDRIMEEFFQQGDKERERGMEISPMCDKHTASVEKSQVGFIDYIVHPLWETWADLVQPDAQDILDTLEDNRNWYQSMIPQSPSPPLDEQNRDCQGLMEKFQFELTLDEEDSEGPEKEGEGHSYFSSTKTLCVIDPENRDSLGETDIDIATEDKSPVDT

| Compound | inhibition at 1 µM | inhibition at 10 µM [1] | also measured |
| --- | --- | --- | --- |
| COc1ccnc(-c2cnc(-n3cc([S+](C)[O-])c4ccc(C(=O)N(C)CC(N)=O)cc43)nc2)c1 (stereo not shown) [Example 283, N-(2-Amino-2-oxoethyl)-1-(5-(4-methoxypyridin-2-yl)pyrimidin-2-yl)-N-methyl-3-(methylsulfinyl)-1H-indole-6-carboxamide] | 92% | – | – |
| CCOc1ccc(F)c(-c2cnc(-n3cc([S+](C)[O-])c4ccc(C(=O)N5CCOCC5)cc43)nc2)c1 (stereo not shown) [Example 261, (1-(5-(5-Ethoxy-2-fluorophenyl)pyrimidin-2-yl)-3-(methylsulfinyl)-1H-indol-6-yl)(morpholino)methanone] | 55% | – | – |
| C[S+]([O-])c1cn(-c2ncc(-c3cc(NCC4CC4)ccc3F)cn2)c2cc(C(=O)N3CCOCC3)ccc12 (stereo not shown) [Example 290, (1-(5-(5-((Cyclopropylmethyl)amino)-2-fluorophenyl)pyrimidin-2-yl)-3-(methylsulfinyl)-1H-indol-6-yl)(morpholino)methanone] | – | 97% | – |
| COc1ccc(F)c(-c2cnc(-n3cc(S(C)(=O)=O)c4ccc(C(=O)N(C)CC(N)=O)cc43)nc2)c1 [Example 310, N-(2-Amino-2-oxoethyl)-1-(5-(2-fluoro-5-methoxyphenyl)pyrimidin-2-yl)-N-methyl-3-(methylsulfonyl)-1H-indole-6-carboxamide] | – | 91% | – |
| CC(O)c1ccc(F)c(-c2cnc(-n3cc(S(C)(=O)=O)c4ccc(C(=O)N5CCOCC5)cc43)nc2)c1 (single isomer, unassigned) [Example 345, (1-(5-(2-Fluoro-5-(1-hydroxyethyl)phenyl)pyrimidin-2-yl)-3-(methylsulfonyl)-1H-indol-6-yl)(morpholino)methanone] | – | – | Inhibition in % (inhibition of PDE4B) (test concentration 10 μM (marked in cell), 10 µM): 95 (10 μM) % |
| Cc1ccnc(-c2cnc(-n3cc([S+](C)[O-])c4ccc(C(=O)N(C)CC(N)=O)cc43)nc2)c1 (stereo not shown) [Example 282, N-(2-Amino-2-oxoethyl)-N-methyl-1-(5-(4-methylpyridin-2-yl)pyrimidin-2-yl)-3-(methylsulfinyl)-1H-indole-6-carboxamide] | 90% | – | – |
| CCc1ccnc(-c2cnc(-n3cc([S+](C)[O-])c4ccc(C(=O)N5CCCC5)cc43)nc2)c1 (stereo not shown) [Example 277, (1-(5-(4-Ethylpyridin-2-yl)pyrimidin-2-yl)-3-(methylsulfinyl)-1H-indol-6-yl)(pyrrolidin-1-yl)methanone] | 93% | – | – |
| C[S+]([O-])c1cn(-c2ncc(-c3cc(C4CC4)ccn3)cn2)c2cc(C(=O)N3CCOCC3)ccc12 (stereo not shown) [Example 258, (1-(5-(4-Cyclopropylpyridin-2-yl)pyrimidin-2-yl)-3-(methylsulfinyl)-1H-indol-6-yl)(morpholino)methanone] | 92% | – | – |
| C[S+]([O-])c1cn(-c2ncc(-c3cc(N4CCCC4)ccn3)cn2)c2cc(C(=O)N3CCOCC3)ccc12 (stereo not shown) [Example 297, (3-(Methylsulfinyl)-1-(5-(4-(pyrrolidin-1-yl)pyridin-2-yl)pyrimidin-2-yl)-1H-indol-6-yl)(morpholino)methanone] | 93% | – | – |
| CCc1ccc(F)c(-c2cnc(-n3cc([S+](C)[O-])c4ccc(C(=O)N5CCCC5)cc43)nc2)c1 (stereo not shown) [Example 275, (1-(5-(5-Ethyl-2-fluorophenyl)pyrimidin-2-yl)-3-(methylsulfinyl)-1H-indol-6-yl)(pyrrolidin-1-yl)methanone] | 113% | – | – |
| CCc1ccnc(-c2cnc(-n3cc([S+](C)[O-])c4ccc(C(=O)N5C[C@@H]6C[C@H]5CN6)cc43)nc2)c1 (stereo partly drawn) [Example 246, (1S,4S)-2,5-Diazabicyclo[2.2.1]heptan-2-yl(1-(5-(4-ethylpyridin-2-yl)pyrimidin-2-yl)-3-(methylsulfinyl)-1H-indol-6-yl)methanone] | 96% | – | – |
| C[S+]([O-])c1cn(-c2ncc(-c3cc(Cl)ccn3)cn2)c2cc(C(=O)N3CCOCC3)ccc12 (stereo not shown) [Example 299, (1-(5-(4-Chloropyridin-2-yl)pyrimidin-2-yl)-3-(methylsulfinyl)-1H-indol-6-yl)(morpholino)methanone] | 94% | – | – |
| CNC(=O)CN(C)C(=O)c1ccc2c([S+](C)[O-])cn(-c3ncc(-c4cc(C)ccc4F)cn3)c2c1 (stereo not shown) [Example 304, 1-(5-(2-Fluoro-5-methylphenyl)pyrimidin-2-yl)-N-methyl-N-(2-(methylamino)-2-oxoethyl)-3-(methylsulfinyl)-1H-indole-6-carboxamide] | – | 115% | – |
| CCc1ccnc(-c2cnc(-n3cc([S+](C)[O-])c4ccc(C(=O)N(C)CC(N)=O)cc43)nc2)c1 (stereo not shown) [Example 285, N-(2-Amino-2-oxoethyl)-1-(5-(4-ethylpyridin-2-yl)pyrimidin-2-yl)-N-methyl-3-(methylsulfinyl)-1H-indole-6-carboxamide] | 91% | – | – |
| CNC(=O)CN(C)C(=O)c1ccc2c(S(C)(=O)=O)cn(-c3ncc(-c4cc(C)ccc4F)cn3)c2c1 [Example 305, 1-(5-(2-Fluoro-5-methylphenyl)pyrimidin-2-yl)-N-methyl-N-(2-(methylamino)-2-oxoethyl)-3-(methylsulfonyl)-1H-indole-6-carboxamide] | – | 85% | – |
| C[S+]([O-])c1cn(-c2ncc(-c3cc(C4(O)CC4)ccc3F)cn2)c2cc(C(=O)N3CCOCC3)ccc12 (stereo not shown) [Example 294, (1-(5-(2-Fluoro-5-(1-hydroxycyclopropyl)phenyl)pyrimidin-2-yl)-3-(methylsulfinyl)-1H-indol-6-yl)(morpholino)methanone] | – | 98% | – |

Second part, led by results:

| inhibition at 1 µM | inhibition at 10 µM [1] | Compound | also measured |
| --- | --- | --- | --- |
| – | 82% | Cc1ccnc(-c2cnc(-n3cc(C(C)O)c4ccc(C(=O)N(C)CC(N)=O)cc43)nc2)c1 (stereo not shown) [Example 332, N-(2-Amino-2-oxoethyl)-3-(1-hydroxyethyl)-N-methyl-1-(5-(4-methylpyridin-2-yl)pyrimidin-2-yl)-1H-indole-6-carboxamide] | – |
| 93% | – | Cc1ccnc(-c2cnc(-n3cc([S+](C)[O-])c4ccc(C(=O)N5CCOCC5)cc43)nc2)c1 (single isomer, unassigned) [Example 351, (1-(5-(4-Methylpyridin-2-yl)pyrimidin-2-yl)-3-(methylsulfinyl)-1H-indol-6-yl)(morpholino)methanone] | – |
| – | 87% | CN(CC(N)=O)C(=O)c1ccc2c([S+](C)[O-])cn(-c3ncc(-c4cc(C5CC5)ccn4)cn3)c2c1 (single isomer, unassigned) [Example 333, N-(2-Amino-2-oxoethyl)-1-(5-(4-cyclopropylpyridin-2-yl)pyrimidin-2-yl)-N-methyl-3-(methylsulfinyl)-1H-indole-6-carboxamide] | – |
| – | 113% | COc1ccnc(-c2cnc(-n3cc([S+](C)[O-])c4ccc(C(=O)N5CCCC5)cc43)nc2)c1 (stereo not shown) [Example 342, (1-(5-(4-Methoxypyridin-2-yl)pyrimidin-2-yl)-3-(methylsulfinyl)-1H-indol-6-yl)(pyrrolidin-1-yl)methanone] | – |
| – | 109% | Cc1ccc(F)c(-c2cnc(-n3cc(C(C)O)c4ccc(C(=O)N5CCOCC5)cc43)nc2)c1 (stereo not shown) [Example 320] | – |
| – | 108% | C[S+]([O-])c1cn(-c2ncc(-c3cc(C4CC4)ccn3)cn2)c2cc(C(=O)N3CCCC3)ccc12 (stereo not shown) [Example 341, (1-(5-(4-Cyclopropylpyridin-2-yl)pyrimidin-2-yl)-3-(methylsulfinyl)-1H-indol-6-yl)(pyrrolidin-1-yl)methanone] | – |
